Assay results published in US10730870B2, “Compounds and methods for the enhanced degradation of targeted proteins” (Arvinas, Inc., priority 2015, dated 2020).

Molecular target: VHL (Homo sapiens (Human), UniProt P40337)
Experiment: VHL fluorescence polarization (FP) competition assay
Assay type: binding

SMILES	IC50 (1% in DMSO) [µM]	IC50 (10% in DMSO) [µM]	IC50 (0.25% in DMSO) [µM]
Cc1cnccc1-c1ccc(CNC(=O)[C@@H]2C[C@@H](O)CN2C(=O)[C@H](C(C)C)N2Cc3ccccc3C2=O)cc1 [Example 80, (2S,4R)-4-hydroxy-1-((S)-3-methyl-2-(1-oxoisoindolin-2-yl)butanoyl)-N-(4-(3-methylpyridin-4-yl)benzyl)pyrrolidine-2-carboxamide]	22.4	38.9	
Cc1ncsc1-c1ccc(CNC(=O)[C@@H]2C[C@@H](O)CN2C(=O)[C@@H](NC(=O)CCC(C)C)[C@H](C)O)cc1 [Example 51, (2S,4R)-4-hydroxy-1-((2S,3S)-3-hydroxy-2-(4-methylpentanamido)butanoyl)-N-(4-(4-methylthiazol-5-yl)benzyl)pyrrolidine-2-carboxamide]	56.6	1520	
CC(=O)NCC(=O)N1C[C@H](O)C[C@H]1C(=O)NCc1ccc(-c2scnc2C)cc1 [Example 86, (2S,4R)-1-(2-acetamidoacetyl)-4-hydroxy-N-(4-(4-methylthiazol-5-yl)benzyl)pyrrolidine-2-carboxamide]	151	225	
Cc1ncsc1-c1ccc(CNC(=O)[C@@H]2C[C@@H](O)CN2C(=O)[C@@H](NC(=O)C2CCCCC2)C(C)(C)C)cc1 [Example 36, (2S,4R)-1-((S)-2-(cyclohexanecarboxamido)-3,3-dimethylbutanoyl)-4-hydroxy-N-(4-(4-methylthiazol-5-yl)benzyl)pyrrolidine-2-carboxamide]	3.55	5.48	6.54
CSC[C@H](NC(=O)CCC(C)C)C(=O)N1C[C@H](O)C[C@H]1C(=O)NCc1ccc(-c2scnc2C)cc1 [Example 22, (2S,4R)-4-hydroxy-1-((R)-2-(4-methylpentanamido)-3-(methylthio)propanoyl)-N-(4-(4-methylthiazol-5-yl)benzyl)pyrrolidine-2-carboxamide]	6.25	8.29	
COc1ccc(CCC(=O)N[C@H](C(=O)N2C[C@H](O)C[C@H]2C(=O)NCc2ccc(-c3scnc3C)cc2)C(C)(C)C)cc1 [Example 76, (2S,4R)-4-hydroxy-1-((S)-2-(3-(4-methoxyphenyl)propanamido)-3,3-dimethylbutanoyl)-N-(4-(4-methylthiazol-5-yl)benzyl)pyrrolidine-2-carboxamide]	0.169		
Cc1ncsc1-c1ccc(CNC(=O)[C@@H]2C[C@@H](O)CN2C(=O)[C@@H](NC(=O)CC(C)C)C(C)(C)C)cc1 [Example 18, (2S,4R)-1-((S)-3,3-dimethyl-2-(3-methylbutanamido)butanoyl)-4-hydroxy-N-(4-(4-methylthiazol-5-yl)benzyl)pyrrolidine-2-carboxamide]	0.855	2.72	5.5
Cc1ncsc1-c1ccc(CNC(=O)[C@@H]2C[C@@H](O)CN2C(=O)[C@@H](NC(=O)c2ccccn2)C(C)(C)C)cc1 [Example 78, N—((S)-1-((2S,4R)-4-hydroxy-2-(4-(4-methylthiazol-5-yl)benzylcarbamoyl)pyrrolidin-1-yl)-3,3-dimethyl-1-oxobutan-2-yl)picolinamide]	1.03	0.81	
COCC#Cc1ccc2c(c1)CN([C@H](C(=O)N1C[C@H](O)C[C@H]1C(=O)NCc1ccc(-c3scnc3C)cc1)C(C)C)C2=O [Example 53, (2S,4R)-4-hydroxy-1-((S)-2-(5-(3-methoxyprop-1-ynyl)-1-oxoisoindolin-2-yl)-3-methylbutanoyl)-N-(4-(4-methylthiazol-5-yl)benzyl)pyrrolidine-2-carboxamide]	0.474	1.03	

The remaining lines, values ahead:

IC50 (1% in DMSO) [µM]	IC50 (10% in DMSO) [µM]	IC50 (0.25% in DMSO) [µM]	SMILES
12.4			Cc1ncsc1-c1ccc(CNC(=O)[C@@H]2[C@@H](O)[C@@H](O)CN2C(=O)[C@H](C(C)C)N2Cc3ccccc3C2=O)cc1 [Example 147, (2S,3R,4S)-3,4-dihydroxy-1-((S)-3-methyl-2-(1-oxoisoindolin-2-yl)butanoyl)-N-(4-(4-methylthiazol-5-yl)benzyl)pyrrolidine-2-carboxamide]
6.67			Cc1ncsc1-c1ccc(CNC(=O)[C@@H]2C[C@@H](O)CN2c2cccc(Oc3ccccc3)c2)cc1 [Example 109, (2S,4R)-4-hydroxy-N-(4-(4-methylthiazol-5-yl)benzyl)-1-(3-phenoxyphenyl)pyrrolidine-2-carboxamide]
1.64			Cc1ncoc1-c1ccc(CNC(=O)[C@@H]2C[C@@H](O)CN2C(=O)[C@H](C(C)C)N2Cc3ccccc3C2=O)cc1 [Example 133, (2S,4R)-4-hydroxy-1-((S)-3-methyl-2-(1-oxoisoindolin-2-yl)butanoyl)-N-(4-(4-methyloxazol-5-yl)benzyl)pyrrolidine-2-carboxamide]
0.859			COC1=CC(=O)N([C@H](C(=O)N2C[C@H](O)C[C@H]2C(=O)NCc2ccc(-c3scnc3C)cc2)C(C)C)C1 [Example 111, (2S,4R)-4-hydroxy-1-((S)-2-(4-methoxy-2-oxo-2,5-dihydro-1H-pyrrol-1-yl)-3-methylbutanoyl)-N-(4-(4-methylthiazol-5-yl)benzyl)pyrrolidine-2-carboxamide]
35.4			CC(C)[C@@H](C(=O)N1C[C@H](O)C[C@H]1C(=O)NCc1ccc(-c2cncn2C)cc1)N1Cc2ccccc2C1=O [Example 96, (2S,4R)-4-hydroxy-N-(4-(1-methyl-1H-imidazol-5-yl)benzyl)-1-((S)-3-methyl-2-(1-oxoisoindolin-2-yl)butanoyl)pyrrolidine-2-carboxamide]
15.8			CC(C)[C@@H](C(=O)N1C[C@H](O)C[C@H]1C(=O)NCc1ccc(C2CCCC2)cc1)N1Cc2ccccc2C1=O [Example 115, (2S,4R)—N-(4-cyclopentylbenzyl)-4-hydroxy-1-((S)-3-methyl-2-(1-oxoisoindolin-2-yl)butanoyl)pyrrolidine-2-carboxamide]
384	263		CC(=O)O[C@@H](C)C(=O)N1C[C@H](O)C[C@H]1C(=O)NCc1ccc(-c2scnc2C)cc1 [Example 87, (S)-1-((2S,4R)-4-hydroxy-2-(4-(4-methylthiazol-5-yl)benzylcarbamoyl)pyrrolidin-1-yl)-1-oxopropan-2-yl acetate]
20.4	39.2		COc1ccc(C(=O)N2C[C@H](O)C[C@H]2C(=O)NCc2ccc(-c3scnc3C)cc2)c(C)c1 [Example 88, (2S,4R)-4-hydroxy-1-(4-methoxy-2-methylbenzoyl)-N-(4-(4-methylthiazol-5-yl)benzyl)pyrrolidine-2-carboxamide]
> 100			Cc1ncsc1-c1ccc(CN/C(=N/C#N)[C@@H]2C[C@@H](O)CN2C(=O)[C@H](C(C)C)N2Cc3ccccc3C2=O)cc1 [Example 112, (2S,4R,E)-N′-cyano-4-hydroxy-1-((S)-3-methyl-2-(1-oxoisoindolin-2-yl)butanoyl)-N-(4-(4-methylthiazol-5-yl)benzyl)pyrrolidine-2-carboximidamide]
0.566			CC[C@H](C)[C@@H](C(=O)N1C[C@H](O)C[C@H]1C(=O)NCc1ccc(-c2scnc2C)cc1)N1Cc2ccc(F)cc2C1=O [Example 94, (2S,4R)-1-((2S,3S)-2-(6-fluoro-1-oxoisoindolin-2-yl)-3-methylpentanoyl)-4-hydroxy-N-(4-(4-methylthiazol-5-yl)benzyl)pyrrolidine-2-carboxamide]
79.5	112		Cc1ncsc1-c1ccc(CNC(=N)[C@@H]2C[C@@H](O)CN2C(=O)[C@H](C(C)C)N2Cc3ccccc3C2=O)cc1 [Example 126, (2S,4R)-4-hydroxy-1-((S)-3-methyl-2-(1-oxoisoindolin-2-yl)butanoyl)-N-(4-(4-methylthiazol-5-yl)benzyl)pyrrolidine-2-carboximidamide]
